{
  "source": "paper PMC5775429",
  "about": "“LY2087101 and dFBr share transmembrane binding sites in the (α4)3(β2)2 Nicotinic Acetylcholine Receptor” (Scientific Reports, 2018)",
  "key": {"[1]": {"tested_on": "non-induced compulsive-like mouse model", "design": "method as in PMID 23712602, PMID 28446611, PMID 28809075, PMID 28105008", "conditions": "cited from earlier work"}, "(α4G613L)3(β2)2 nAChR": {"target": "(α4G613L)3(β2)2 nAChR (Homo sapiens, UniProt P43681, G613L)", "sequence (P43681 29-627 G613L limits assumed)": "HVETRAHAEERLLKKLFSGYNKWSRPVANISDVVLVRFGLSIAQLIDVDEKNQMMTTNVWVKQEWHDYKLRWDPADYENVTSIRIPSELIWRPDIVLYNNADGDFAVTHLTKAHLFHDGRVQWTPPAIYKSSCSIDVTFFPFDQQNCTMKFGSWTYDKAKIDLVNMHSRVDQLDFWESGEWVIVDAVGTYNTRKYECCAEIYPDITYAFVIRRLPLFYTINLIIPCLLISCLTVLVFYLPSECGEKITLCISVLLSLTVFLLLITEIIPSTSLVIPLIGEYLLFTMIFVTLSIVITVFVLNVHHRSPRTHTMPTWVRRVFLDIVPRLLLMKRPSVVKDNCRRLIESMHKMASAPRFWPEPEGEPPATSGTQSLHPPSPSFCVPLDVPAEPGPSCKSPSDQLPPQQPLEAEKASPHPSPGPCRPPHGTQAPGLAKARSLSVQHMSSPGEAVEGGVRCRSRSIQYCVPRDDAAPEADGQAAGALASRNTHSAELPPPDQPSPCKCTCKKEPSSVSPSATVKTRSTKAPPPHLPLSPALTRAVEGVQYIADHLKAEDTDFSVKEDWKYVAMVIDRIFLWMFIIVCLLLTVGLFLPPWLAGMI", "sequence (P17787 26-502 partner)": "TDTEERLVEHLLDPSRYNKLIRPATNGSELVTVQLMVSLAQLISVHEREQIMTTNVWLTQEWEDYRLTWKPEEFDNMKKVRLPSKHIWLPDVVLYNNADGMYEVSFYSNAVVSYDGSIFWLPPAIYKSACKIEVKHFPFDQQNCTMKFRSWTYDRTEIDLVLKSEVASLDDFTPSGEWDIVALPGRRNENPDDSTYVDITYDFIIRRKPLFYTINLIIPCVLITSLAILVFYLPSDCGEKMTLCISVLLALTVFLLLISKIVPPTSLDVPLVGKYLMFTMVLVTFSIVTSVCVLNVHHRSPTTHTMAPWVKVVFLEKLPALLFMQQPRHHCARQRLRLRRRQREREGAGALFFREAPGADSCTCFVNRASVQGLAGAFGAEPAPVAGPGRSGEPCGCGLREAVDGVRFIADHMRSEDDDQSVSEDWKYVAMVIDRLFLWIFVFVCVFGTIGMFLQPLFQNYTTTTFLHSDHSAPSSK", "assay": "Two-electrode voltage-clamp of ACh-induced currents in Xenopus oocytes", "format": "cell-based", "description": "(§1) For amino acid substitutions within the α4 nAChR subunit, point mutations were introduced into pSP64ployA plasmid with cDNA encoding for human α4 nAChR subunit with mutagenic primer pairs using the Quick Change II Site-Directed Mutagenesis Kit (Agilent Technologies) then confirmed by DNA sequencing (GENEWIZ, LLC, South Plainfield, NJ). cRNA transcripts suitable for oocyte expression were prepared in vitro from linearized plasmids [α3 (BamH1), α4 (AseI), β2 (PvuII), β4 (XhoI)] using mMESSAGE mMACHINE high yield capped RNA transcription kits (Ambion) and purified on NucAway Spin column (Invitrogen). cRNA concentration was determined by spectroscopy (Concentration (ug/ul) = Abs260 * 40), aliquoted and stored at −80 °C until used.\n(§2) Ovarian lobules were surgically harvested from oocytes-positive female Xenopus laevis (NASCO, Fort Atkinson, WI) according to an animal use protocol approved by the Texas A&M Health Sciences Center Institutional Animals Care and Use Committee. The Texas A&M Health Sciences Center Research Facility is registered as an animal research facility with the United States Department of Agriculture and is fully accredited by the American Association for Accreditation of Laboratory Animal Care (AAALAC). For oocytes defolliculation, ovarian lobes were treated with 3 mg/ml collagenase type 2 (Worthington Biomedical, Lakewood, NJ) in Ca + 2-free buffer (85 mM NaCl, 2.5 mM KCl, 1 mM MgCl2, 5 mM HEPES, pH 7.6). Collagenase treatment was allowed to proceed for 3 hours at room temperature with gentle shaking then oocytes were washed several times with buffer to remove collagenase then with ND96-gentamicine buffer. Healthy Stage V and VI oocytes were visually selected and maintained at 18 °C in modified ND96-gentamicine buffer (96 mM NaCl, 2 mM KCl, 1.8 mM CaCl2, 1 mM MgCl2, 5 mM HEPES, 50 µg/ml gentamicin, pH 7.6). Oocytes were injected with 50–100 ng of the desired nAChR subunits cRNA mix at ratios of 8α:1β or 1α:8β to express nAChRs with subunit stoichiometries of 3α:2β (low agonist sensitivity) or 2α:3β (high agonist sensitivity), respectively.\n(§3) Oocytes were continuously perfused with recording buffer (100 mM NaCl, 2 mM KCl, 1 mM CaCl2, 0.8 mM MgCl2, 1 mM EGTA, 10 mM Hepes, pH 7.5) except during periods of drug applications."}, "(α4C254S)3(β2)2 nAChR": {"target": "T1, (α4C254S)3(β2)2 nAChR (Homo sapiens, UniProt P17787+P43681, C254S)", "T1 construct": "expressed in transfected cells; host or cells: Xenopus laevis oocytes injected with cRNA", "T1 sequence (P43681 29-627 C254S limits assumed)": "as the sequence (P43681 29-627 G613L limits assumed) above, with C226S, L585G counted along it", "T1 sequence (P17787 26-502)": "as the sequence (P17787 26-502 partner) above", "assay": "Two-electrode voltage-clamp of ACh-induced currents in Xenopus oocytes", "format": "cell-based", "description": "as §1, §2, §3"}, "(α4F606Y)3(β2)2 nAChR": {"target": "T2, (α4F606Y)3(β2)2 nAChR (Homo sapiens, UniProt P17787+P43681, F606Y)", "T2 construct": "expressed in transfected cells; host or cells: Xenopus laevis oocytes injected with cRNA", "T2 sequence (P43681 29-627 F606Y limits assumed)": "as the sequence (P43681 29-627 G613L limits assumed) above, with F578Y, L585G counted along it", "T2 sequence (P17787 26-502)": "as the sequence (P17787 26-502 partner) above", "assay": "Two-electrode voltage-clamp of ACh-induced currents in Xenopus oocytes", "format": "cell-based", "description": "as §1, §2, §3"}, "(α4M605V)3(β2)2 nAChR": {"target": "T3, (α4M605V)3(β2)2 nAChR (Homo sapiens, UniProt P17787+P43681, M605V)", "T3 construct": "expressed in transfected cells; host or cells: Xenopus laevis oocytes injected with cRNA", "T3 sequence (P43681 29-627 M605V limits assumed)": "as the sequence (P43681 29-627 G613L limits assumed) above, with M577V, L585G counted along it", "T3 sequence (P17787 26-502)": "as the sequence (P17787 26-502 partner) above", "assay": "Two-electrode voltage-clamp of ACh-induced currents in Xenopus oocytes", "format": "cell-based", "conditions": "10 µM ACh + 1 µM PAM vs 10 µM ACh alone", "description": "as §1, §2, §3"}, "(α4H332Y)3(β2)2 nAChR": {"target": "T4, (α4H332Y)3(β2)2 nAChR (Homo sapiens, UniProt P17787+P43681, H332Y)", "T4 construct": "expressed in transfected cells; host or cells: Xenopus laevis oocytes injected with cRNA", "T4 sequence (P43681 29-627 H332Y limits assumed)": "as the sequence (P43681 29-627 G613L limits assumed) above, with H304Y, L585G counted along it", "T4 sequence (P17787 26-502)": "as the sequence (P17787 26-502 partner) above", "assay": "Two-electrode voltage-clamp of ACh-induced currents in Xenopus oocytes", "format": "cell-based", "conditions": "10 µM ACh + 1 µM PAM vs 10 µM ACh alone", "description": "as §1, §2, §3"}, "(α4L256F)3(β2)2 nAChR": {"target": "(α4L256F)3(β2)2 nAChR (Homo sapiens, UniProt P43681, L256F)", "sequence (P43681 29-627 L256F limits assumed)": "as the sequence (P43681 29-627 G613L limits assumed) above, with L228F, L585G counted along it", "sequence (P17787 26-502 partner)": "as the sequence (P17787 26-502 partner) above", "assay": "Two-electrode voltage-clamp of ACh-induced currents in Xenopus oocytes", "format": "cell-based", "description": "as §1, §2, §3"}, "(α4I608L)3(β2)2 nAChR": {"target": "T5, (α4I608L)3(β2)2 nAChR (Homo sapiens, UniProt P17787+P43681, I608L)", "T5 construct": "expressed in transfected cells; host or cells: Xenopus laevis oocytes injected with cRNA", "T5 sequence (P43681 29-627 I608L limits assumed)": "as the sequence (P43681 29-627 G613L limits assumed) above, with I580L, L585G counted along it", "T5 sequence (P17787 26-502)": "as the sequence (P17787 26-502 partner) above", "assay": "Two-electrode voltage-clamp of ACh-induced currents in Xenopus oocytes", "format": "cell-based", "conditions": "10 µM ACh + 1 µM PAM vs 10 µM ACh alone", "description": "as §1, §2, §3"}, "(α4T261D)3(β2)2 nAChR": {"target": "T6, (α4T261D)3(β2)2 nAChR (Homo sapiens, UniProt P17787+P43681, T261D)", "T6 construct": "expressed in transfected cells; host or cells: Xenopus laevis oocytes injected with cRNA", "T6 sequence (P43681 29-627 T261D limits assumed)": "as the sequence (P43681 29-627 G613L limits assumed) above, with T233D, L585G counted along it", "T6 sequence (P17787 26-502)": "as the sequence (P17787 26-502 partner) above", "assay": "Two-electrode voltage-clamp of ACh-induced currents in Xenopus oocytes", "format": "cell-based", "conditions": "10 µM ACh + 1 µM PAM vs 10 µM ACh alone", "description": "as §1, §2, §3"}, "(α4I315A)3(β2)2 nAChR": {"target": "T7, (α4I315A)3(β2)2 nAChR (Homo sapiens, UniProt P17787+P43681, I315A)", "T7 construct": "expressed in transfected cells; host or cells: Xenopus laevis oocytes injected with cRNA", "T7 sequence (P43681 29-627 I315A limits assumed)": "as the sequence (P43681 29-627 G613L limits assumed) above, with I287A, L585G counted along it", "T7 sequence (P17787 26-502)": "as the sequence (P17787 26-502 partner) above", "assay": "Two-electrode voltage-clamp of ACh-induced currents in Xenopus oocytes", "format": "cell-based", "conditions": "10 µM ACh + 1 µM PAM vs 10 µM ACh alone", "description": "as §1, §2, §3"}, "(α4M605I)3(β2)2 nAChR": {"target": "T8, (α4M605I)3(β2)2 nAChR (Homo sapiens, UniProt P17787+P43681, M605I)", "T8 construct": "expressed in transfected cells; host or cells: Xenopus laevis oocytes injected with cRNA", "T8 sequence (P43681 29-627 M605I limits assumed)": "as the sequence (P43681 29-627 G613L limits assumed) above, with M577I, L585G counted along it", "T8 sequence (P17787 26-502)": "as the sequence (P17787 26-502 partner) above", "assay": "Two-electrode voltage-clamp of ACh-induced currents in Xenopus oocytes", "format": "cell-based", "conditions": "10 µM ACh + 1 µM PAM vs 10 µM ACh alone", "description": "as §1, §2, §3"}, "(α4E308V)3(β2)2 nAChR": {"target": "(α4E308V)3(β2)2 nAChR (Homo sapiens, UniProt P43681, E308V)", "sequence (P43681 29-627 E308V limits assumed)": "as the sequence (P43681 29-627 G613L limits assumed) above, with E280V, L585G counted along it", "sequence (P17787 26-502 partner)": "as the sequence (P17787 26-502 partner) above", "assay": "Two-electrode voltage-clamp of ACh-induced currents in Xenopus oocytes", "format": "cell-based", "description": "as §1, §2, §3"}, "(α4I607T)3(β2)2 nAChR": {"target": "T9, (α4I607T)3(β2)2 nAChR (Homo sapiens, UniProt P17787+P43681, I607T)", "T9 construct": "expressed in transfected cells; host or cells: Xenopus laevis oocytes injected with cRNA", "T9 sequence (P43681 29-627 I607T limits assumed)": "as the sequence (P43681 29-627 G613L limits assumed) above, with I579T, L585G counted along it", "T9 sequence (P17787 26-502)": "as the sequence (P17787 26-502 partner) above", "assay": "Two-electrode voltage-clamp of ACh-induced currents in Xenopus oocytes", "format": "cell-based", "conditions": "10 µM ACh + 1 µM PAM vs 10 µM ACh alone", "description": "as §1, §2, §3"}, "(α4H94N)3(β2)2 nAChR": {"target": "(α4H94N)3(β2)2 nAChR (Homo sapiens, UniProt P43681, H94N)", "sequence (P43681 29-627 H94N limits assumed)": "as the sequence (P43681 29-627 G613L limits assumed) above, with H66N, L585G counted along it", "sequence (P17787 26-502 partner)": "as the sequence (P17787 26-502 partner) above", "design": "method as in PMID 28446611", "conditions": "10 µM ACh + 1 µM dFBr vs 10 µM ACh alone; data reported previously ref 29; cited from earlier work"}, "[2]": {"conditions": "10 µM ACh + 1 µM PAM vs 10 µM ACh alone"}, "[3]": {"conditions": "ACh concentration-response curve, normalized to 1 mM ACh alone"}, "[4]": {"conditions": "read-out: inhibition of ACh-current response at 10 μM dFBr"}},
  "note": "Where “and” joins values, the source holds several entries; their conditions need not be identical. Identical values can stand only once. Marks after values point to notes of the source that are not given here.",
  "data": [
    {"compound": "C=CC(C)(C)c1[nH]c2cc(Br)ccc2c1CCNC", "note": "[dFBr]", "values": [
      {"measurement": "compulsive-like behavior", "setting": "[1]", "result": "attenuate compulsive-like behavior"},
      {"measurement": "R, potentiation ratio (PR)", "setting": "(α4G613L)3(β2)2 nAChR; [2]", "result": "0.8 and 0.8 ± 0.1"},
      {"measurement": "ACh Imax in the presence of 1 µM dFBr", "setting": "(α4G613L)3(β2)2 nAChR; [3]", "result": "157 ± 19", "unit": "%"},
      {"measurement": "dFBr concentration-dependent potentiation of ACh-current responses", "setting": "(α4G613L)3(β2)2 nAChR; dFBr up to 10 µM, 10 μM ACh", "result": "did not potentiate"},
      {"measurement": "inhibition at 10 µM", "setting": "(α4G613L)3(β2)2 nAChR; [4]", "result": "~65", "unit": "%"},
      {"measurement": "R, potentiation ratio (PR)", "setting": "(α4C254S)3(β2)2 nAChR; [2]", "result": "3.6 ± 0.4"},
      {"measurement": "ACh Imax in the presence of 1 µM dFBr", "setting": "(α4C254S)3(β2)2 nAChR; [3]", "result": "190 ± 08", "unit": "%"},
      {"measurement": "dFBr potentiation h (Hill coefficient)", "setting": "(α4C254S)3(β2)2 nAChR; co-applied with 10 μM ACh", "result": "0.8 ± 0.1"},
      {"measurement": "dFBr potentiation Imax", "setting": "(α4C254S)3(β2)2 nAChR; normalized to 10 µM ACh alone", "result": "430 ± 31", "unit": "%"},
      {"measurement": "EC50", "setting": "(α4C254S)3(β2)2 nAChR; read-out: dFBr potentiation EC50", "result": "1.5 ± 0.5", "unit": "µM"},
      {"measurement": "R, potentiation ratio (PR)", "setting": "(α4F606Y)3(β2)2 nAChR; [2]", "result": "3.1 ± 0.4"},
      {"measurement": "ACh Imax in the presence of 1 µM dFBr", "setting": "(α4F606Y)3(β2)2 nAChR; [3]", "result": "159 ± 07", "unit": "%"},
      {"measurement": "R, potentiation ratio (PR)", "setting": "(α4M605V)3(β2)2 nAChR", "result": "5.3 ± 1.2"},
      {"measurement": "R, potentiation ratio (PR)", "setting": "(α4H332Y)3(β2)2 nAChR", "result": "5.5 ± 0.4"},
      {"measurement": "R, potentiation ratio (PR)", "setting": "(α4L256F)3(β2)2 nAChR; [2]", "result": "1.0 and ~ 1 and 1.0 ± 0.1"},
      {"measurement": "ACh Imax in the presence of 1 µM dFBr", "setting": "(α4L256F)3(β2)2 nAChR; [3]", "result": "142 ± 08", "unit": "%"},
      {"measurement": "dFBr concentration-dependent potentiation of ACh-current responses", "setting": "(α4L256F)3(β2)2 nAChR; dFBr up to 10 µM, 10 μM ACh", "result": "did not potentiate"},
      {"measurement": "inhibition at 10 µM", "setting": "(α4L256F)3(β2)2 nAChR; [4]", "result": "~25", "unit": "%"},
      {"measurement": "R, potentiation ratio (PR)", "setting": "(α4I608L)3(β2)2 nAChR", "result": "5.4 ± 0.4"},
      {"measurement": "R, potentiation ratio (PR)", "setting": "(α4T261D)3(β2)2 nAChR", "result": "~ 2.1 and 2.1 ± 0.1"},
      {"measurement": "R, potentiation ratio (PR)", "setting": "(α4I315A)3(β2)2 nAChR", "result": "1.2 and ~ 1.2 and 1.2 ± 0.2"},
      {"measurement": "R, potentiation ratio (PR)", "setting": "(α4M605I)3(β2)2 nAChR", "result": "4.5 ± 0.3"},
      {"measurement": "R, potentiation ratio (PR)", "setting": "(α4E308V)3(β2)2 nAChR; [2]", "result": "1.0 and 1.0 ± 0.1"},
      {"measurement": "ACh Imax in the presence of 1 µM dFBr", "setting": "(α4E308V)3(β2)2 nAChR; [3]", "result": "110 ± 06", "unit": "%"},
      {"measurement": "dFBr concentration-dependent potentiation of ACh-current responses", "setting": "(α4E308V)3(β2)2 nAChR; dFBr up to 10 µM, 10 μM ACh", "result": "did not potentiate"},
      {"measurement": "inhibition at 10 µM", "setting": "(α4E308V)3(β2)2 nAChR; [4]", "result": "~45", "unit": "%"},
      {"measurement": "R, potentiation ratio (PR)", "setting": "(α4I607T)3(β2)2 nAChR", "result": "4.7 ± 2.1"},
      {"measurement": "R, potentiation ratio (PR)", "setting": "(α4H94N)3(β2)2 nAChR", "result": "5.8 ± 0.5^a"}
    ]}
  ]
}
